Counter-ions that a name gives are not always drawn.

Data set [1] in a line: Physicochemical properties of the drug substance. An excerpt: However, the compound of formula (I), or a pharmaceutically acceptable salt thereof, in particular the sodium salt thereof, is a drug substance which is difficult to formulate due to its physicochemical properties. […] It is also plate like, very fluffy, and sticky in nature.
The nature of data set [2]: Disintegrant compatibility / stress storage. Format: physicochemical. Particulars: due to the presence of residual formaldehyde. Here is the method:
It can be seen from the above table that core tablets formulated with Cross linked polyvinyl pyrollidone (PVP-XL) show a slower release compared to the Sodium Starch Glycollate (SSG), and Croscarmellose Sodium (Ac-Di-Sol) based formulations. […] Formulations containing Croscarmellose Sodium (Ac-Di-Sol) were also found to turn to yellow when prepared and exposed to 50° C. dry as well as 50° C./75% […] humidity for 4 weeks.

As to `O=C(O)C[C@H]1CC[C@H](c2ccc(-c3ccc(Nc4ccc(C(F)(F)F)nc4)cn3)cc2)CC1` [compound of formula (II), trans-(4-{4-[5-(6-Trifluoromethyl-pyridin-3-ylamino)-pyridin-2-yl]-phenyl}-cyclohexyl)-acetic acid, sodium salt], the moisture uptake result in data set [1] (at 95% relative humidity) is listed as “high moisture uptake”. Moreover, in data set [1] (drug substance, sodium salt), the hygroscopicity result is “hygroscopic” and the solubility result was “poorly soluble”. In addition, in data set [2], the “compatibility with Cross linked polyvinyl pyrollidone (PVP-XL)” value is “incompatible”.

Source of the values: patent US11304907B2, “Pharmaceutical compositions containing a DGAT1 inhibitor” (Novartis AG, priority 2010, dated 2022).
